Results as given in patent US9371331B2, “Modulators of methyl modifying enzymes, compositions and uses thereof” (Constellation Pharmaceuticals, Inc., priority 2012, dated 2016).
Read-outs that look alike come from different tables or passages of the source.

Tests used:
[1] = target: EZH2 (rPRC2) (Homo sapiens, UniProt Q15910); assay: EZH2 assay: rPRC2, biotinylated oligonucleosomes, 3H SAM methyl transfer (FlashPlate scintillation); format: biochemical; details: biotinylated oligonucleosome substrate
[2] = target: Y641N EZH2 (Homo sapiens, UniProt Q15910, Y641N); assay: Y641N EZH2 assay: as EZH2 assay, with reconstituted H3K27Me2 oligonucleosomes as substrate; format: biochemical
[3] = Y641N mutant EZH2, H3K27Me2 oligonucleosome substrate
[4] = wild-type EZH2 (rPRC2), read-out: EZH2 IC50
[5] = Y641N mutant EZH2, H3K27Me2 oligonucleosome substrate, read-out: Y641N EZH2 IC50
[6] = EZH2 IC50, wild-type EZH2 (rPRC2)
[7] = Y641N EZH2 IC50, Y641N mutant EZH2, H3K27Me2 oligonucleosome substrate

EZH2 (rPRC2), sequence (Q15910 whole entry): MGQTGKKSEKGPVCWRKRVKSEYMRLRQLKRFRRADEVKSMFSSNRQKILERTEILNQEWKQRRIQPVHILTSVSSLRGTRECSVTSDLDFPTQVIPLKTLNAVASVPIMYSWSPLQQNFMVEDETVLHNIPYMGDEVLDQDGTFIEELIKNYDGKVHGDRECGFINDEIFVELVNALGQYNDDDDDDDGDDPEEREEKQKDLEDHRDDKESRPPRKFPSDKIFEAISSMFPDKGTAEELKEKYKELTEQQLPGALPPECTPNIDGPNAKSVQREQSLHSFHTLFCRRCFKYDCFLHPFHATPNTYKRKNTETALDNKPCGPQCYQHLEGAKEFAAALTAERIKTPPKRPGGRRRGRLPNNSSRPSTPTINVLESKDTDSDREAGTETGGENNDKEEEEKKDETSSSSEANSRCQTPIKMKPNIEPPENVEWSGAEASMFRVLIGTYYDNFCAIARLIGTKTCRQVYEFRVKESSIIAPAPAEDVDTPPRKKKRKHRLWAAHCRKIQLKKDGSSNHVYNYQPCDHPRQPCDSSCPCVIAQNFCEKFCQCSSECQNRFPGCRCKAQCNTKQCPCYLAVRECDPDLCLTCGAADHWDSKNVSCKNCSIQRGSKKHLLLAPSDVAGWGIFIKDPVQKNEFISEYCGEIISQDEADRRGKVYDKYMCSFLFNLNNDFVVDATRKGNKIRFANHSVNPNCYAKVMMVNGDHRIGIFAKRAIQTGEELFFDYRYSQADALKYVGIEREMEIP
EZH2 (rPRC2), sequence (O75530 whole entry partner): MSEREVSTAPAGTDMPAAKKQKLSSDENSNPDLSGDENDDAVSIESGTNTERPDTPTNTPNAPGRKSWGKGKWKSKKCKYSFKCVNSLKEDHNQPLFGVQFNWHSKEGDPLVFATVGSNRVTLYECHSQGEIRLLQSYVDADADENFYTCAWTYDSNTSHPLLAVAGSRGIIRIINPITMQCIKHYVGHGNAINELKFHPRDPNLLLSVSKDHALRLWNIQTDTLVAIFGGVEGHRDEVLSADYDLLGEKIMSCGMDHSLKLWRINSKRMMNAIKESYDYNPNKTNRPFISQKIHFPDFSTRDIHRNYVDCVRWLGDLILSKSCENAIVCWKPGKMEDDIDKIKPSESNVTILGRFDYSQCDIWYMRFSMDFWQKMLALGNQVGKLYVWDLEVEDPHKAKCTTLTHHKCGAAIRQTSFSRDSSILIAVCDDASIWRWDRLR
EZH2 (rPRC2), sequence (Q15022 whole entry partner): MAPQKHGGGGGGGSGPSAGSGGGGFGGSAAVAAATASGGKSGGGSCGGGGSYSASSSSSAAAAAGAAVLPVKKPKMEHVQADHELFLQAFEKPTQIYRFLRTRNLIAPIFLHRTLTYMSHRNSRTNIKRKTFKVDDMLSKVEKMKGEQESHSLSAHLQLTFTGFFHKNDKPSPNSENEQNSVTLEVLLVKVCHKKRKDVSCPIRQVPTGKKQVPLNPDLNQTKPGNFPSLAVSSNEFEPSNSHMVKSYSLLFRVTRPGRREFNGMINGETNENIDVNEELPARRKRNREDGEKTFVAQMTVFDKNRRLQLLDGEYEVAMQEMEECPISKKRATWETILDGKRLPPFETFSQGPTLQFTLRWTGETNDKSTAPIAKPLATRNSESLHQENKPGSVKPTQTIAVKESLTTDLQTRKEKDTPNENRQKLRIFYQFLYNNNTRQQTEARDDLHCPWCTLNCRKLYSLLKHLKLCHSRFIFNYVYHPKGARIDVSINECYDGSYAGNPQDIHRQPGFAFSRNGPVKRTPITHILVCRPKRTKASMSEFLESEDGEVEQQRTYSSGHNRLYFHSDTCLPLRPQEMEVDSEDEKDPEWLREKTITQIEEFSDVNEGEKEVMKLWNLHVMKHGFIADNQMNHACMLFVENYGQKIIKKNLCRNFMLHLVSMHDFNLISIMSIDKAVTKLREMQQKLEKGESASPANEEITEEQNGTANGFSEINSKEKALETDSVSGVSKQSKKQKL
Y641N EZH2, sequence (Q15910 whole entry Y641N): as the sequence (Q15910 whole entry) above, with Y641N counted along it
Y641N EZH2, sequence (O75530 whole entry partner): as the sequence (O75530 whole entry partner) above
Y641N EZH2, sequence (Q15022 whole entry partner): as the sequence (Q15022 whole entry partner) above

| SMILES | IC50 [1, 4] | IC50 [2, 5] | IC50 [1, 6] | IC50 [2, 7] | further results |
| --- | --- | --- | --- | --- | --- |
| Cc1cc(C)c(CNC(=O)c2c(-c3ccccc3)n(C(C)c3ccccc3)c3ccccc23)c(O)n1 (single isomer, unassigned) [Compound 445, (R or S)-N-((2-hydroxy-4,6-dimethylpyridin-3-yl)methyl)-2-phenyl-1-(1-phenylethyl)-1H-indole-3-carboxamide] | – | – | – | – | EZH2 IC50 ([1]; wild-type EZH2 (rPRC2)): *(10 uM); Y641N EZH2 IC50 [2, 3]: *(10 uM) |
| Cc1cc(C)c(CNC(=O)c2cnn(-c3ccccc3)c2C)c(=O)[nH]1 [Compound 100, N-((4,6-dimethyl-2-oxo-1,2-dihydropyridin-3-yl)methyl)-5-methyl-1-phenyl-1H-pyrazole-4-carboxamide] | 1000 to 10000 nM | > 10000 nM | – | – | – |
| Cc1cc(C)c(CNC(=O)c2cnn(Cc3ccccc3)c2C)c(O)n1 [Compound 109, 1-benzyl-N-((2-hydroxy-4,6-dimethylpyridin-3-yl)methyl)-5-methyl-1H-pyrazole-4-carboxamide] | – | – | – | – | EZH2 IC50 ([1]; wild-type EZH2 (rPRC2)): *(10 μM); Y641N EZH2 IC50 [2, 3]: *(10 μM) |
| Cc1cc(C)c(CNC(=O)c2cnn(CCc3ccccc3)c2C)c(O)n1 [Compound 110, N-((2-hydroxy-4,6-dimethylpyridin-3-yl)methyl)-5-methyl-1-phenethyl-1H-pyrazole-4-carboxamide] | – | – | – | – | EZH2 IC50 ([1]; wild-type EZH2 (rPRC2)): *(10 μM); Y641N EZH2 IC50 [2, 3]: *(10 μM) |
| Cc1cc(C)c(CNC(=O)c2nn(C(C)c3ccccc3)c3ccccc23)c(O)n1 (stereo not shown) [Compound 112, N-((2-hydroxy-4,6-dimethylpyridin-3-yl)methyl)-1-(1-phenylethyl)-1H-indazole-3-carboxamide] | – | – | – | – | EZH2 IC50 ([1]; wild-type EZH2 (rPRC2)): *(10 μM); Y641N EZH2 IC50 [2, 3]: *(10 μM) |
| Cc1cc(C)c(CNC(=O)c2cn(-c3ccccc3C)c3ccccc23)c(O)n1 [Compound 113, N-((2-hydroxy-4,6-dimethylpyridin-3-yl)methyl)-1-(o-tolyl)-1H-indole-3-carboxamide] | 100 to 1000 nM | 1000 to 10000 nM | – | – | – |
| Cc1cc(C)c(CNC(=O)c2c(C)n(Cc3ccccc3)c3ccccc23)c(O)n1 [Compound 119, 1-benzyl-N-((2-hydroxy-4,6-dimethylpyridin-3-yl)methyl)-2-methyl-1H-indole-3-carboxamide] | – | – | < 100 nM | 100 to 1000 nM | – |
| Cc1cc(C)c(CNC(=O)c2c(C)n(-c3ccccc3)c3ccccc23)c(O)n1 [Compound 133, N-((2-hydroxy-4,6-dimethylpyridin-3-yl)methyl)-2-methyl-1-phenyl-1H-indole-3-carboxamide] | < 100 nM | 100 to 1000 nM | – | – | – |
| Cc1cc(C)c(CNC(=O)c2cn(S(=O)(=O)c3ccccc3)c3ccccc23)c(=O)[nH]1 [Compound 135, N-((4,6-dimethyl-2-oxo-1,2-dihydropyridin-3-yl)methyl)-1-(phenylsulfonyl)-1H-indole-3-carboxamide] | 1000 to 10000 nM | > 10000 nM | – | – | – |
| COc1ncc2c(C(=O)NCc3c(C)cc(C)nc3O)c(C)n([C@H](C)c3ccccc3)c2n1 [Compound 141, (R)—N-((2-hydroxy-4,6-dimethylpyridin-3-yl)methyl)-2-methoxy-6-methyl-7-(1-phenylethyl)-7H-pyrrolo[2,3-d]pyrimidine-5-carboxamide] | – | – | 100 to 1000 nM | 1000 to 10000 nM | – |
| Cc1cc(C)c(CNC(=O)c2c(C)n([C@H](C)c3ccccc3)c3nc(N4CCCC4)ncc23)c(O)n1 [Compound 142, (R)—N-((2-hydroxy-4,6-dimethylpyridin-3-yl)methyl)-6-methyl-7-(1-phenylethyl)-2-(pyrrolidin-1-yl)-7H-pyrrolo[2,3-d]pyrimidine-5-carboxamide] | – | – | 100 to 1000 nM | 1000 to 10000 nM | – |
| Cc1cc(C)c(CNC(=O)c2c(C)n(Cc3cncnc3)c3ccccc23)c(=O)[nH]1 [Compound 149, N-((4,6-dimethyl-2-oxo-1,2-dihydropyridin-3-yl)methyl)-2-methyl-1-(pyrimidin-5-ylmethyl)-1H-indole-3-carboxamide] | – | – | 100 to 1000 nM | 1000 to 10000 nM | – |
| Cc1cc(C)c(CNC(=O)c2c(C)n(C(=O)c3ccccc3)c3ccccc23)c(O)n1 [Compound 150, 1-benzoyl-N-((2-hydroxy-4,6-dimethylpyridin-3-yl)methyl)-2-methyl-1H-indole-3-carboxamide] | 100 to 1000 nM | 100 to 1000 nM | – | – | – |
| Cc1cc(C)c(CNC(=O)c2c(C)n([C@H](C)c3ccccc3)c3nc(Cl)ncc23)c(O)n1 [Compound 167] | – | – | 100 to 1000 nM | 100 to 1000 nM | – |
| Cc1cc(C)c(CNC(=O)c2c(C)n([C@H](C)c3ccccc3)c3nc(C4CCOCC4)ncc23)c(O)n1 [Compound 168, (R)-N-((2-hydroxy-4,6-dimethylpyridin-3-yl)methyl)-6-methyl-7-(1-phenylethyl)-2-(tetrahydro-2H-pyran-4-yl)-7H-pyrrolo[2,3-d]pyrimidine-5-carboxamide] | 100 to 1000 nM | 1000 to 10000 nM | – | – | – |
| Cc1cc(C)c(CNC(=O)c2c(C)n(-c3cccc(C)c3C)c3ccccc23)c(=O)[nH]1 [Compound 173, N-((4,6-dimethyl-2-oxo-1,2-dihydropyridin-3-yl)methyl)-1-(2,3-dimethylphenyl)-2-methyl-1H-indole-3-carboxamide] | < 100 nM | 100 to 1000 nM | – | – | – |
| Cc1cc(C)c(CNC(=O)c2c(C)n([C@H](C)c3ccccc3)c3nc(C)ncc23)c(O)n1 [Compound 176, (R)-N-((2-hydroxy-4,6-dimethylpyridin-3-yl)methyl)-2,6-dimethyl-7-(1-phenylethyl)-7H-pyrrolo[2,3-d]pyrimidine-5-carboxamide] | – | – | < 100 nM | 100 to 1000 nM | – |
| Cc1cc(C)c(CNC(=O)c2c(C)n([C@H](C)c3ccccc3)c3nc(C(C)C)ncc23)c(O)n1 [Compound 177, (R)-N-((2-hydroxy-4,6-dimethylpyridin-3-yl)methyl)-2-isopropyl-6-methyl-7-(1-phenylethyl)-7H-pyrrolo[2,3-d]pyrimidine-5-carboxamide] | – | – | < 100 nM | 100 to 1000 nM | – |
| CC[C@@H](C)n1c(C)c(C(=O)NCc2c(C)cc(C)[nH]c2=O)c2cnc(Cl)nc21 [Compound 184, (R)-7-(sec-butyl)-2-chloro-N-((4,6-dimethyl-2-oxo-1,2-dihydropyridin-3-yl)methyl)-6-methyl-7H-pyrrolo[2,3-d]pyrimidine-5-carboxamide] | – | – | 100 to 1000 nM | 1000 to 10000 nM | – |
| CC[C@@H](C)n1c(C)c(C(=O)NCc2c(C)cc(C)nc2O)c2cnc(-c3ccccc3)nc21 [Compound 188, (R)-7-(sec-butyl)-N-((2-hydroxy-4,6-dimethylpyridin-3-yl)methyl)-6-methyl-2-phenyl-7H-pyrrolo [2,3-d]pyrimidine-5-carboxamide] | 100 to 1000 nM | 1000 to 10000 nM | – | – | – |
| CC[C@@H](C)n1c(C)c(C(=O)NCc2c(C)cc(C)nc2O)c2cncnc21 [Compound 189, (R)-7-(sec-butyl)-N-((2-hydroxy-4,6-dimethylpyridin-3-yl)methyl)-6-methyl-7H-pyrrolo[2,3-d]pyrimidine-5-carboxamide] | – | – | 100 to 1000 nM | 1000 to 10000 nM | – |
| Cc1cc(C)c(CNC(=O)c2c(C)n(S(=O)(=O)N3CCCCC3)c3ncccc23)c(=O)[nH]1 [Compound 194, N-((4,6-dimethyl-2-oxo-1,2-dihydropyridin-3-yl)methyl)-2-methyl-1-(piperidin-1-ylsulfonyl)-1H-pyrrolo[2,3-b]pyridine-3-carboxamide] | 100 to 1000 nM | 1000 to 10000 nM | – | – | – |
| CC[C@@H](C)n1c(C)c(C(=O)NCc2c(C)cc(C)[nH]c2=O)c2cnc(C(C)C)nc21 [Compound 197, (R)-7-(sec-butyl)-N-((4,6-dimethyl-2-oxo-1,2-dihydropyridin-3-yl)methyl)-2-isopropyl-6-methyl-7H-pyrrolo[2,3-d]pyrimidine-5-carboxamide] | – | – | 100 to 1000 nM | 100 to 1000 nM | – |
| CC[C@@H](C)n1c(C)c(C(=O)NCc2c(C)cc(C)[nH]c2=O)c2cnc(C(=O)NC)nc21 [Compound 198, (R)-7-(sec-butyl)-N5-((4,6-dimethyl-2-oxo-1,2-dihydropyridin-3-yl)methyl)-N2,6-dimethyl-7H-pyrrolo[2,3-d]pyrimidine-2,5-dicarboxamidc] | 1000 to 10000 nM | 1000 to 10000 nM | – | – | – |
| CC[C@@H](C)n1c(C)c(C(=O)NCc2c(C)cc(C)[nH]c2=O)c2cnc(CO)nc21 [Compound 199, (R)-7-(sec-butyl)-N-((4,6-dimethyl-2-oxo-1,2-dihydropyridin-3-yl)methyl)-2-(hydroxymethyl)-6-methyl-7H-pyrrolo[2,3-d]pyrimidine-5-carboxamide] | 100 to 1000 nM | 1000 to 10000 nM | – | – | – |
| CC[C@@H](C)n1c(C)c(C(=O)NCc2c(C)cc(C)[nH]c2=O)c2cnc(C)nc21 [Compound 200, (R)-7-(sec-butyl)-N-((4,6-dimethyl-2-oxo-1,2-dihydropyridin-3-yl)methyl)-2,6-dimethyl-7H-pyrrolo[2,3-d]pyrimidine-5-carboxamide] | – | – | 100 to 1000 nM | 1000 to 10000 nM | – |
| Cc1cc(C)c(CNC(=O)c2c(C)n(C3CCOCC3)c3ncccc23)c(=O)[nH]1 [Compound 244, N-((4,6-dimethyl-2-oxo-1,2-dihydropyridin-3-yl)methyl)-2-methyl-1-(tetrahydro-2H-pyran-4-yl)-1H-pyrrolo[2,3-b]pyridine-3-carboxamide] | – | – | 100 to 1000 nM | 1000 to 10000 nM | – |
| Cc1cc(C)c(CNC(=O)c2c(C)n(CC3(C)COC3)c3ccccc23)c(=O)[nH]1 [Compound 246, N-((4,6-dimethyl-2-oxo-1,2-dihydropyridin-3-yl)methyl)-2-methyl-1-((3-methyloxetan-3-yl)methyl)-1H-indole-3-carboxamide] | – | – | 100 to 1000 nM | 100 to 1000 nM | – |
| CNC(=O)c1cccc(C(C)n2c(C)c(C(=O)NCc3c(OC)cc(C)[nH]c3=O)c3cccnc32)c1 (stereo not shown) [Compound 263, N-((4-methoxy-6-methyl-2-oxo-1,2-dihydropyridin-3-yl)methyl)-2-methyl-1-(1-(3-(methylcarbamoyl)phenyl)ethyl)-1H-pyrrolo[2,3-b]pyridine-3-carboxamide] | < 100 nM | 100 to 1000 nM | – | – | – |
